In ChEMBL document CHEMBL1138067, “A new synthesis of sulfonamides by aminolysis of p-nitrophenylsulfonates yielding potent and selective adenosine A2B receptor antagonists” (J Med Chem, 2006) one finds Ki, inhibition and Selectivity ratio data, which are given here for 19 molecules.

As usually defined, the pKi is the negative decadic logarithm of the Ki, by convention in mol/L. A word on the inhibition: it is the drop in the measured response relative to a control, in per cent.

The target of experiment [1] is T1, Adenosine receptor A3 (Homo sapiens, UniProt P0DMS8).
T1 sequence (P0DMS8 whole entry): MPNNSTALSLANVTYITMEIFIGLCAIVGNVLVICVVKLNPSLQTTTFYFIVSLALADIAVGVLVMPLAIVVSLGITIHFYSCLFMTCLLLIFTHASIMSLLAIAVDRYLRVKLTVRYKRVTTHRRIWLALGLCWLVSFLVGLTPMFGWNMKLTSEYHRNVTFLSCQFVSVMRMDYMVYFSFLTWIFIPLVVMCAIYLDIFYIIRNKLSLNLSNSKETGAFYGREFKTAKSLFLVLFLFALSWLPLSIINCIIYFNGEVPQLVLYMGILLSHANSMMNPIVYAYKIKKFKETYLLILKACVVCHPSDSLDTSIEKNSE
Nature of the experiment: Displacement of [3H]PSB11 from human recombinant adenosine A3 receptor expressed in CHO cells. It counts as cell-based. Background: Displacement assays read how much labelled ligand stays bound in the presence of the test substance.

In experiment [2] the target is T2, Adenosine receptor A1 (Homo sapiens, UniProt P30542).
T2 sequence (P30542 whole entry): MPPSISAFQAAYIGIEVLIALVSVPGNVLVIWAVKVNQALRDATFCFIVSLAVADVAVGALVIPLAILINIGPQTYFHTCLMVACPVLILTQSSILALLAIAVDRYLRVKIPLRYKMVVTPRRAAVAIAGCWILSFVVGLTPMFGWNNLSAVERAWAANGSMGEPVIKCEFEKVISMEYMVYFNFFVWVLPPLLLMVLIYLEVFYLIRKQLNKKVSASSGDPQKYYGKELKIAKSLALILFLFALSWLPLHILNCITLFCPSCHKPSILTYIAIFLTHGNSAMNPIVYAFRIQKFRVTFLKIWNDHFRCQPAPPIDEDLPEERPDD
Put plainly: Displacement of [3H]CCPA from human recombinant adenosine A1 receptor expressed in CHO cells. Type of experiment: cell-based.

In experiment [3] the target is T1, Adenosine receptor A3. Put plainly: Displacement of [125I]AB-MECA from human recombinant adenosine A3 receptor expressed in CHO cells. It counts as cell-based.
Experiment [4] has as its target Adenosine receptor A2a (Rattus norvegicus, UniProt P30543). Nature of the experiment: Displacement of [3H]MSX2 from adenosine A2A receptor in rat brain striatal membranes. It counts as cell membranes, Membrane.
Experiment [5] deals with T3, Adenosine receptor A2b (Homo sapiens, UniProt P29275).
T3 sequence (P29275 whole entry): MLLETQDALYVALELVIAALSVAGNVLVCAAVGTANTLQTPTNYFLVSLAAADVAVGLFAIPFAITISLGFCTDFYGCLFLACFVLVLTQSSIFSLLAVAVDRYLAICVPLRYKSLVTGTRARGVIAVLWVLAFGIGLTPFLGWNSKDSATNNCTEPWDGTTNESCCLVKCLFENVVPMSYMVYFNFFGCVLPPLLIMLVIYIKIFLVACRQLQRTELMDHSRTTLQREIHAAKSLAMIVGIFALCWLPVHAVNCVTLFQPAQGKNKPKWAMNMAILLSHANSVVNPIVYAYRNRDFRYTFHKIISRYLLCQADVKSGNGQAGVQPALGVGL
Nature of the experiment: Displacement of [3H]PSB298 from human recombinant adenosine A2B receptor expressed in CHO cells. It counts as cell-based.

The target in experiment [6] is T4, Adenosine receptor A1 (Rattus norvegicus, UniProt P25099).
T4 sequence (P25099 whole entry): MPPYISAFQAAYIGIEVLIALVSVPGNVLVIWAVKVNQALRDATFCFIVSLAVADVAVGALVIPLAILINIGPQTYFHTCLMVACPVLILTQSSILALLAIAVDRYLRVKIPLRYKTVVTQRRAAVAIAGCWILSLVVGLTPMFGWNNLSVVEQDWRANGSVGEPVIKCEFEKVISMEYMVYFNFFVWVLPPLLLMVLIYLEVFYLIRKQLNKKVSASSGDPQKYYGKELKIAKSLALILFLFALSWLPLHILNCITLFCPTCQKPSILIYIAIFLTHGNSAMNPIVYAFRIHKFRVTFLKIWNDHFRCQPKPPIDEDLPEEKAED
Nature of the experiment: Displacement of [3H]CCPA from adenosine A1 receptor in rat brain cortical membranes. It counts as cell membranes, Membrane.

For experiment [7], the target named is T5, Adenosine receptor A3 (Homo sapiens) (UniProt P0DMS8).
T5 sequence (whole entry): T1 sequence (P0DMS8 whole entry)
Nature of the experiment: Inhibition of [3H]PSB11 binding to human recombinant adenosine A3 receptor in CHO cells at >=1 uM. It counts as cell-based.

Experiment [8] addresses T5, Adenosine receptor A3 (Homo sapiens). Nature of the experiment: (§1) Inhibition of [3H]PSB11 binding to human recombinant adenosine A3 receptor in CHO cells at >=10 uM. Type of experiment: cell-based.
The target is the same in experiment [9]. Put plainly: Inhibition of [3H]PSB11 binding to human recombinant adenosine A3 receptor in CHO cells at >10 uM. It counts as cell-based.
Experiment [10] has the same target. Nature of the experiment: Inhibition of [3H]PSB11 binding to human recombinant adenosine A3 receptor in CHO cells at >1 uM. It counts as cell-based.
In experiment [11] the target is Adenosine receptors; A2b & A3 (Homo sapiens) (UniProt P29275+P0DMS8). Nature of the experiment: Selectivity for human adenosine A2B receptor over adenosine A3 receptor. It counts as protein assay.
The target in experiment [12] is Adenosine receptor A2a (Homo sapiens, UniProt P29274). Put plainly: Displacement of [3H]MSX2 from human recombinant adenosine A2A receptor expressed in CHO cells. It counts as cell-based.
Experiment [13] addresses Adenosine receptors; A1 & A2b (Homo sapiens) (UniProt P30542+P29275). Put plainly: Selectivity for human adenosine A2B receptor over adenosine A1 receptor. Type of experiment: protein assay.
Experiment [14] addresses T1, Adenosine receptor A3. The description is as §1. Type of experiment: cell-based.

pKi: −log10 of the molar value.

Adenosine receptor A2a (Homo sapiens, UniProt P29274), sequence (P29274 whole entry): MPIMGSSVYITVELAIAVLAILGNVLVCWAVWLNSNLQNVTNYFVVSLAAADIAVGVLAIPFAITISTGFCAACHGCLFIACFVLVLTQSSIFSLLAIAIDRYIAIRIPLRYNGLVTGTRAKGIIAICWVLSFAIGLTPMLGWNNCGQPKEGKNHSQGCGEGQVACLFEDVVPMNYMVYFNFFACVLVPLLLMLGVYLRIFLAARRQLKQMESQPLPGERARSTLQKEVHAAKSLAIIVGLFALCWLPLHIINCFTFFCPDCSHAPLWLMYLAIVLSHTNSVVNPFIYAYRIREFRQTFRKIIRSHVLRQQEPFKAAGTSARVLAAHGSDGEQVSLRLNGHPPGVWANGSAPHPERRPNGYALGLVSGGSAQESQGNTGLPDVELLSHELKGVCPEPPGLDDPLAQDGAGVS
Adenosine receptor A2a (Rattus norvegicus, UniProt P30543), sequence (P30543 whole entry): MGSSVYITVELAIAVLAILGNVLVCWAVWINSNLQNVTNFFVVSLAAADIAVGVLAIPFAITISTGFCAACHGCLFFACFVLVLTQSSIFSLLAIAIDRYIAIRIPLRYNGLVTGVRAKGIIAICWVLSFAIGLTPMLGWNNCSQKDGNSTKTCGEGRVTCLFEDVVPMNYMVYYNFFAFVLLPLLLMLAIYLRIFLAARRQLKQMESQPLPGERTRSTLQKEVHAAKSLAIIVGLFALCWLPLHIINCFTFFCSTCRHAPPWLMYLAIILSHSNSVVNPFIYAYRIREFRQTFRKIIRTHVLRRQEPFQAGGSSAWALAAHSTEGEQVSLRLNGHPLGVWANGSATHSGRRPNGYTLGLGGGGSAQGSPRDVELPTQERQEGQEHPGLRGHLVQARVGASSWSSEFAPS

Turning to `CCCn1c(=O)[nH]c2nc(-c3ccc(S(=O)(=O)O)cc3)[nH]c2c1=O`, the pKi in experiment [1] and in [2] was < 5.00 throughout.

Regarding `Cn1c(=O)c2[nH]c(-c3ccc(S(=O)(=O)O)cc3)nc2n(C)c1=O`, the pKi in [3] is 5.23.

Consider `CC(C)NS(=O)(=O)c1ccc(-c2nc3c([nH]2)c(=O)n(C)c(=O)n3C)cc1`, for which the pKi in experiment [1] is < 5.00; in experiment [4], 6.55; in experiment [5], 6.99; in experiment [6], 7.12.

As for `CCCn1c(=O)[nH]c2[nH]c(-c3ccc(S(=O)(=O)Nc4ccccc4)cc3)nc2c1=O`, the pKi in experiment [1] was ≤ 6.00; in experiment [4], 7.64; in experiment [5], 7.50; in [6], 8.74. For the same molecule, the inhibition in experiment [7] turned out to be 48%.

With `CCCn1c(=O)[nH]c2[nH]c(-c3ccc(S(=O)(=O)NCCO)cc3)nc2c1=O`, the pKi in experiment [1] is ≤ 5.00; in [4], 6.54; in [5], 7.57; in experiment [6], 7.35. In experiment [8], the inhibition came out at 36%.

Turning to `CCCCNS(=O)(=O)c1ccc(-c2nc3c(=O)n(C)c(=O)n(C)c3[nH]2)cc1`, in experiment [8], the inhibition is 43%.

With `CCCn1c(=O)[nH]c2nc(-c3ccc(S(=O)(=O)NCC(=O)O)cc3)[nH]c2c1=O`, the negative logarithm of the Ki (pKi) in [1] was < 5.00; in experiment [4], 6.49; in experiment [5] it was 7.00; in [6], 7.00.

For the molecule `CCCn1c(=O)[nH]c2[nH]c(-c3ccc(S(=O)(=O)NCC(=O)O)cc3)nc2c1=O`, the inhibition in [9] is 25%.

On to `CC(C)NS(=O)(=O)c1ccc(-c2nc3c(=O)n(C)c(=O)n(C)c3[nH]2)cc1`, for which, in experiment [9], the inhibition was found to be 27%.

Regarding `CCCCNS(=O)(=O)c1ccc(-c2nc3c([nH]2)c(=O)n(C)c(=O)n3C)cc1`, the negative-log Ki (pKi) in experiment [1] was ≤ 5.00; in [4] it was 6.78; in [5], 6.91; in experiment [6], 7.57.

On to `Cn1c(=O)c2nc(-c3ccc(S(=O)(=O)NCCO)cc3)[nH]c2n(C)c1=O`, for which the inhibition in [8] came to 49%.

For the molecule `CCCN(CCC)S(=O)(=O)c1ccc(-c2nc3[nH]c(=O)n(CCC)c(=O)c3[nH]2)cc1`, the pKi is < 6.00 in [1], 7.38 in experiment [4], 7.27 in [5] and 8.26 in experiment [6].

`CCCN(CCC)S(=O)(=O)c1ccc(-c2nc3c(=O)n(CCC)c(=O)[nH]c3[nH]2)cc1`: the inhibition in experiment [10] was determined as 18%.

For the molecule `CCCn1c(=O)[nH]c2[nH]c(-c3ccc(S(=O)(=O)NCCc4ccccc4)cc3)nc2c1=O`, the pKi in [1] is ≤ 5.00; in experiment [4], 6.53; in experiment [12], 6.11; in experiment [5] it was 8.44; in [2], 6.74; in experiment [6], 8.00. For the same molecule, the Selectivity ratio was > 2700 in [11] and 50 in experiment [13]. Besides, the inhibition in experiment [8] came out at 37%.

Turning to `CCCn1c(=O)[nH]c2[nH]c(-c3ccc(S(=O)(=O)NCc4ccccc4)cc3)nc2c1=O`, the negative-log Ki (pKi) in [1] was ≤ 6.00; in [4], 7.57; in experiment [12], 6.79; in experiment [5], 8.38; in [2], 7.26; in experiment [6], 8.34. Further, the results for the Selectivity ratio in experiment [11] and in [13] were > 200 and 13, respectively. The inhibition in [7] amounted to 41%.

Turning to `Cn1c(=O)c2[nH]c(-c3ccc(S(=O)(=O)NCCO)cc3)nc2n(C)c1=O`, the pKi is ≤ 5.00 in [1], 6.46 in experiment [4], 6.60 in experiment [5] and 7.01 in experiment [6].

`CCCn1c(=O)[nH]c2nc(-c3ccc(S(=O)(=O)N4CCN(Cc5ccccc5)CC4)cc3)[nH]c2c1=O`: the inhibition in experiment [10] worked out at 29%. In addition, the pKi in [1] is < 6.00; in experiment [4], 7.03; in experiment [12] it was 6.32; in [5], 8.44; in [2], 5.68; in [6] it was 6.59. Further, the Selectivity ratio in experiment [11] was > 278; in experiment [13], 574.

Consider `Cn1c(=O)c2[nH]c(-c3ccc(S(=O)(=O)NCCc4ccccc4)cc3)nc2n(C)c1=O`, for which the negative-log Ki (pKi) was 5.97 in experiment [1]; 6.95 in experiment [4]; 7.49 in experiment [12]; 8.35 in experiment [5]; 6.73 in [2]; 7.92 in experiment [6].

For the molecule `Cn1c(=O)c2nc(-c3ccc(S(=O)(=O)NCC(=O)O)cc3)[nH]c2n(C)c1=O`, the pKi was ≤ 5.00 in experiment [1], 6.74 in [4], 6.81 in experiment [5] and 7.19 in experiment [6]. Moreover, the inhibition in experiment [14] worked out at 41%.
